Measurements: US12129312B2, “Peptide compound, application thereof and composition containing same” (priority 2017, dated 2024)
Numbered stars: 1 amine (or outer) side, 2 acyl side, 3 side chain; on linkers, the order of the positions; unused ones are H or OH. Square brackets hold non-standard residues; d marks the D form. Peptide text beside a SMILES is read from it. Pro(4,4-F2) = O=C(O)[C@@H]1CC(F)(F)CN1; 1Nal = N[C@@H](Cc1cccc2ccccc12)C(=O)O; 2Nal = N[C@@H](Cc1ccc2ccccc2c1)C(=O)O; dNMeY = CN[C@H](Cc1ccc(O)cc1)C(=O)O; X3 = O=C(N1Cc2ccccc2CN1[*:1])[*:2]; Tic = O=C(O)[C@@H]1Cc2ccccc2CN1; NMeL = CN[C@@H](CC(C)C)C(=O)O; NMeS = CN[C@@H](CO)C(=O)O

These molecules were tested against T1, human Chemokine like receptor 1 (Homo sapiens, UniProt Q99788) (assay: Activation of Tango CMKLR1-bla U2OS cells (beta-lactamase FRET reporter)). Settings: not given.
T1 construct: host or cells: U2OS (Tango CMKLR1-bla U2OS)
T1 sequence (Q99788 1-373): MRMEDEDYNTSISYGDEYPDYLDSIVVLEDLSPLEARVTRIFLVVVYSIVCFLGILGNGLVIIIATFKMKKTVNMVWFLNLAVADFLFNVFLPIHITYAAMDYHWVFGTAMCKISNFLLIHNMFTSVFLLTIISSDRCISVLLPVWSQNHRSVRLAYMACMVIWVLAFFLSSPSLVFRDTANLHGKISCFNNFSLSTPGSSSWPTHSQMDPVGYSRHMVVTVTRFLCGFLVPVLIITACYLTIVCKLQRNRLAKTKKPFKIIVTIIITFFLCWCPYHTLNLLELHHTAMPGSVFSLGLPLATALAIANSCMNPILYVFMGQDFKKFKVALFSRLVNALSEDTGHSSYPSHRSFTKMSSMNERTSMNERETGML
Assay type: cell-based
Experimental: The polypeptide sequences described above are the polypeptide sequences disclosed in the patent JP2010-229093A of BANYU PHARMA CO LTD: (D-Tyr)-Phe-Leu-Pro-(D-Ser)-Gln-Phe-(D-Ala)-Tic-Ser was used as a positive control (SEQ ID NO: 102).
The activation of the compound on Tango™ CMKLR1-bla U2OS cells (Invitrogen Cat. nos. K1551) was tested.
The activation of each compound in the above experiments on Tango™ CMKLR1-bla U2OS cells was determined as follows:
Day 1: Cell Seeding on Plate
2. The medium was removed, and the cells were washed with DPBS twice, followed by addition of 3 mL of 0.05% trypsin, and placed in a 37° C., 5% CO2 incubator (Thermo Fisher, Waltham, Massachusetts, USA) for 3-5 minutes. After the cells were rounded, 3-5 mL of medium (medium formula: DMEM 90%, Dialyzed FBS 10%, NEAA 0.1 mM, HEPES (pH 7.3) 25 mM, Penicillin 100 U/mL, Streptomycin 100 μg/mL) was added to terminate digestion.
2. The digested cells were transferred to a 15 mL centrifuge tube (430790, Corning), centrifuged at 1000 rpm for 5 minutes (5810R, Eppendorf, Hamburg, Germany), and the supernatant was discarded.
3. 7 mL of medium (DMEM+10% FBS) was added, blowed into a single cell suspension, counted by a cell counter, and adjusted the cell suspension to a desired cell density of 250,000/mL with the medium.
4. The cell suspension was seeded into a 384-well cell plate (Corning 3712) in 40 μL/well to make the number of cells 10000 cells/well, and 32 μL of medium was added to the blank control.
5. The incubation was performed overnight at 37° C. under 5% CO2.
Day 2: Dosing and Testing
1. Preparation of 200× Compound Plate
1.1 The test compound was formulated into a 10 mM working solution in DMSO.
1.2 45 μL of 10 mM test compound was added to the 2nd column of rows A to P in the Echo-384 well plate. The compound was subjected to a 3-fold dilution with Precision (30 μL of DMSO was added to the 3rd to 11th columns; 15 μL of the drug solution was pipetted from the 2nd column to the 3rd column, blown and evenly mixed; then 15 μL of the drug solution was pipetted from the 3rd column to the 4th column, blown and evenly mixed; the drugs was subjected to a 3-fold dilution to obtain 10 concentrations in total). The 1st and 12th columns of the Echo-384 well plate were supplemented with 30 μL of DMSO.
2. Preparation of Intermediate Plate
500 nL, i.e., 0.5 μL of the diluted compound (or DMSO) in the 200× compound plate was transferred into the corresponding position of V-bottom 384-well plate with Echo. 20 μL of medium was added to each well, centrifuged, shaken and evenly mixed. The concentration of the drugs in each well of the 2nd to 11th column of intermediate plate (i.e., 5× compound plate) were shown in following Table 4.
3.1 The cell plate was taken out from the incubator and observed under a microscope. The diluted compound or DMSO in the intermediate plate was added to the cell plate in 10 μL/well in the corresponding cell plate, and 40 μL of medium was pre-filled in each well.
3.2 The cells were incubated at 37° C. under 5% CO2 for 4 hours.
4.1 1 mM CCF4-AM, solution B, Solution C, and Solution D were used to prepare an appropriate amount of 6× detection solution. The LiveBLAzer™-FRET B/G Loading kit (K1095, Thermo Fisher, Waltham, Massachusetts, USA) kit containing CCF-4AM and solutionB, solutionC, and solutionD was also purchased from invitrogen (K1157, Thermo Fisher, Waltham, Massachusetts, USA).
4.2 The cells were observed under a microscope and the cell plate was equilibrated to room temperature.
4.3 6 μL of CCF-4AM dissolved solution A, 60 μL of solution B, 904 μL of solution C and 30 μL of solution D were pipetted in an EP tube, blown, and evenly mixed to obtain a 6× detection solution. The prepared 6× detection solution was pipetted to a 384-well plate in 10 μL/well.

Structure (SMILES)	EC50
CC(C)C[C@@H](C(=O)N1CC(F)(F)C[C@H]1C(=O)N[C@H](CO)C(=O)N[C@@H](CCC(N)=O)C(=O)N[C@@H](Cc1ccc2ccccc2c1)C(=O)N[C@H](C)C(=O)N1Cc2ccccc2C[C@H]1C(=O)N(C)[C@@H](CO)C(=O)O)N(C)C(=O)[C@H](Cc1ccccc1)NC(=O)[C@H](N)Cc1ccc(O)cc1 [YW-224, (D-Tyr)-Phe-(NMe-Leu)-Pro(diF)-(D-Ser)-Gln-2Nal-(D-Ala)-Tic-NMeSer] (H-[dY]F[NMeL][Pro(4,4-F2)][dS]Q[2Nal][dA][Tic][NMeS]-OH)	1.3 nM
CC(C)C[C@@H](C(=O)N1CCC[C@H]1C(=O)N[C@H](CO)C(=O)N[C@@H](CCC(N)=O)C(=O)N[C@@H](Cc1ccccc1)C(=O)N[C@H](C)C(=O)N1Cc2ccccc2C[C@H]1C(=O)N[C@@H](CO)C(=O)O)N(C)C(=O)[C@H](Cc1cccc2ccccc12)NC(=O)[C@H](N)Cc1ccc(O)cc1 [YW-199, (D-Tyr)-1Nal-(NMe-Leu)-Pro-(D-Ser)-Gln-Phe-(D-Ala)-Tic-Ser] (H-[dY][1Nal][NMeL]P[dS]QF[dA][Tic]S-OH)	2.9 nM

Same assay, conditions: Tango CMKLR1-bla U2OS cells, 4 hours incubation, four-parameter fit of activation rate

EC50	Structure (SMILES)
no fit	CC(C)C[C@H](NC(=O)[C@H](Cc1ccccc1)NC(=O)[C@H](N)Cc1ccc(O)cc1)C(=O)N1CCC[C@H]1C(=O)N[C@H](CO)C(=O)N[C@@H](CCC(N)=O)C(=O)N[C@H](CO)C(=O)N[C@H](C)C(=O)N1Cc2ccccc2CN1C(=O)N[C@@H](CO)C(=O)O [YW-147, (D-Tyr)-Phe-Leu-Pro-(D-Ser)-Gln-(D-Ser)-(D-Ala)-azaTic-Ser-OH] (H-[dY]FLP[dS]Q[dS][dA][X3]S-OH; N-terminus assumed)

Same assay, conditions: determination by the method of Effect Embodiment 1; read-out: EC50

EC50	Structure (SMILES)
9.4 nM	CN[C@H](Cc1ccc(O)cc1)C(=O)N[C@@H](Cc1ccccc1)C(=O)N[C@@H](CC(C)C)C(=O)N1CCC[C@H]1C(=O)N[C@H](CO)C(=O)N[C@@H](CCC(N)=O)C(=O)N[C@@H](Cc1ccccc1)C(=O)N[C@H](C)C(=O)N1Cc2ccccc2C[C@H]1C(=O)N[C@@H](CO)C(=O)O [YW-103, (D-NMe-Tyr)-Phe-Leu-Pro-(D-Ser)-Gln-Phe-(D-Ala)-Tic-Ser-OH] (H-[dNMeY]FLP[dS]QF[dA][Tic]S-OH; N-terminus assumed)
5 nM	CC(C)C[C@@H](C(=O)N1CCC[C@H]1C(=O)N[C@H](CO)C(=O)N[C@@H](CCC(N)=O)C(=O)N[C@@H](Cc1ccccc1)C(=O)N[C@H](C)C(=O)N1Cc2ccccc2C[C@H]1C(=O)N(C)[C@@H](CO)C(=O)O)N(C)C(=O)[C@H](Cc1ccccc1)NC(=O)[C@H](N)Cc1ccc(O)cc1 [YW-166, (D-Tyr)-Phe-(NMe-Leu)-Pro-(D-Ser)-Gln-Phe-(D-Ala)-Tic-(NMe-Ser)-OH] (H-[dY]F[NMeL]P[dS]QF[dA][Tic][NMeS]-OH)
50 nM	CC(C)C[C@H](NC(=O)[C@H](Cc1ccccc1)NC(=O)[C@H](N)Cc1ccccc1)C(=O)N1CCC[C@H]1C(=O)N[C@H](CO)C(=O)N[C@@H](CCC(N)=O)C(=O)N[C@@H](Cc1ccccc1)C(=O)N[C@H](C)C(=O)N1Cc2ccccc2C[C@H]1C(=O)N[C@@H](CO)C(=O)O [YW-97, (D-Phe)-Phe-Leu-Pro-(D-Ser)-Gln-Phe-(D-Ala)-Tic-Ser-OH] (H-[dF]FLP[dS]QF[dA][Tic]S-OH)
> 50000 nM	CC(C)C[C@H](NC(=O)[C@H](Cc1ccccc1)NC(=O)[C@H](N)Cc1ccc(O)cc1)C(=O)N1CCC[C@H]1C(=O)N[C@H](CO)C(=O)N[C@@H](CCC(N)=O)C(=O)N[C@H](CO)C(=O)N[C@H](C)C(=O)N1Cc2ccccc2CN1C(=O)N[C@@H](CO)C(=O)O [YW-147, (D-Tyr)-Phe-Leu-Pro-(D-Ser)-Gln-(D-Ser)-(D-Ala)-azaTic-Ser-OH] (H-[dY]FLP[dS]Q[dS][dA][X3]S-OH; N-terminus assumed)
